Results on two molecules are retold here after patent US11020392B2, “Use of trimetazidine as a hepatoprotective medicine in prevention and treatment of liver diseases and conditions” (Martin Pharmaceuticals, Inc., priority 2015, dated 2021).

For one series, the system named is Chang liver cells. It counts as cell-based. The conditions noted are these: 10 mM NH4Cl; 1 mM LOLA, 1 mM TMZ, or 1 mM TMZ+1 mM LOLA; hypoxic (10% O2); FIG. 7. As to the method:
Chang liver cells (American Type Culture Collection No. CCL-13) was cultured in RPMI1640 medium (Solarbio) containing 10% fetal bovine serum (Gibco), 100 u/mL penicillin and 100 μg/mL […], at 37° C. and under hypoxic conditions (10% O2, 5% CO2) and saturated humidity.

In series [1] the test system is liver failure patients. The series is described as follows: Clinical cohort study of trimetazidine in hepatic failure patients (ALT/AST decrease, TMZ vs DCA). In kind it is in vivo, human. The conditions noted are these: after 5 days of treatment, both groups also on basic treatment incl. LOLA, FIG. 2. The source says:
The single-center cohort study was adopted as the clinical trial method.
In accordance with relevant references and the results of previous trials, the number of cases shall be no less than 50. Taking into account the number of loss to follow up and possible drop-out (to be controlled around 10%), 60 cases are required to be selected (30 cases for the trial group and 30 cases for the control group).
All serious hepatitis patients enrolled between Aug. 19, 2014 and […] were put in the control group; and all those enrolled between December 9 and the application date were in the trial group.
2. Exclusion Criteria • Patients under 18 or over 70 years old; • Patients diagnosed with shock liver (ischemic liver disease); • Patients with liver failure in pregnancy or HELLP syndrome; • Patients with liver failure secondary to malignant tumor in the liver; • Patients with refractory hypotension • Patients with septic shock; • Patients about to receive liver transplant (within 8 hours); • Patients allergic to trimetazidine drug; • Patients […] of trimetazidine drug; • Abuser of drugs and/or alcohol; • Pregnant or lactation women; • Patients with recent myocardial infarct (within half a year); • Patients with serious renal inadequacy.
2. Control group: Diisopropylamine Dichloroacetate (DCA) (80 mg/D) for the control group in this trial, provided by Dandong Yichuang Pharmaceutical Co., Ltd, for a 4-week course of treatment.
3. Both trial group and control group were also given basic treatment to meet ethical requirements. […] HBV-related liver failure patients were also treated with lamivudine.
1. Alanine aminotransferase (ALT), tested by chromatometry, with products provided by Roche Diagnostics (Shanghai) Ltd.
2. Aspartate transaminase (AST), tested by chromatometry, with products provided by Roche Diagnostics (Shanghai) Ltd.

The test system of series [2] is patients with liver failure / serious hepatitis. Briefly: Clinical cases: individual patients given oral TMZ on top of combined treatment. It counts as in vivo, human. The source says:
Case 1: The patient had past positive HBsAg for over 20 years, during which they took multiple reexaminations of liver function and, as the results of all color ultrasound examinations were within normal range, they were not given any special treatment. Three months before, after catching cold and overwork, they developed abdominal distension and yellow urine, and was admitted to hospital following aggravation of the condition over 6 days. On admission, they were complicated with massive seroperitoneum and serious xanthochromia throughout the skin and mucosa of their whole body, feeling serious nausea, anorexia and feebleness.
Case 2: had had yellow urine for 25 days and dry mouth and bitter taste in mouth for 10 days before they came to the First Affiliated Hospital of Zhengzhou University. […] If they had been treated with the original approach, it would probably have taken two months before they could be discharged from hospital.
Case 3: had past positive HBsAg for 8 years, without regular treatment or periodic reexamination of relevant indicators. […] They took orally some “stomach medicine” (specific medicine not known) with poor effect. After the aforesaid symptoms aggravated for half a month, with urine turning as yellow as strong tea water, they were admitted to the First Affiliated Hospital of Zhengzhou University on Jan. 21, 2015. […] In merely 12 days, the patient achieved decrease of transaminase by dozens of times, relief from the critical condition, alleviated hepatocyte inflammatory responses and a favorable condition for liver cells, and greatly shortened length of hospitalization.
Case 4: […] They felt abdominal distension and nausea, accompanied with hydroncus in lower limbs, when they were tired half a month ago. For further treatment, they were admitted to the First Affiliated Hospital of Zhengzhou University on Jan. 13, 2015. Color ultrasound examination of abdomen detected diffuse changes of echo patterns of liver, cholecystolithiasis and cholecystitis. […] The patient's liver enzyme decreased to normal level after a short period, meeting the requirements for a surgical operation. Following the operation, their abdominal pain disappeared, with liver enzyme back to normal level and improved appetite. Their quality of life improves now without any discomfort.
Case 5: had past positive HBsAg for over 10 years, with HBsAg (+), HBeAg (+) and HBcAb (+), and had atrial fibrillation over 5 years, during which they orally took traditional Chinese medicine intermittently, but without regular treatment. They complained of feebleness, nausea, dry mouth and bitter taste, and anorexia for 6 days, and was hospitalized on Jan. 31, 2015. After admission, they had ALT 1881 u/L, AST 699 u/L, and prothrombin time activity (PTA) at 26%. The patient was extremely weak, in very poor spirits, with very poor appetite. A notice of critical illness diagnosis was given. […] The patient achieved a rapid decrease of transaminase and obvious improvement of liver synthesis function, and was safe from the critical condition. They continued to take the medicine till maturity of the treatment course, to improve the hepatocyte microcirculation and excretion of bilirubin. The patient soon recovered and left hospital.

Series [3] deals with liver failure patients. Briefly: Large-scale randomized clinical trial, 165 liver failure patients (control, LOLA, TMZ+LOLA). The source says:
We recruited totally 298 patients with liver failure according to the American and European criteria.

Series [4] concerns liver of liver failure patients. The series is described as follows: PET-CT imaging of liver FDG uptake before and after treatment. In kind it is in vivo, human. To be noted: liver failure patient(s), after vs before treatment; FIG. 4. From the text:
Intriguingly, we were able to compare the PET-CT images before and after liver failure recovery in two participants who underwent PET-CT imaging due to suspicious liver lesions by magnet renascence imaging.

The subject of the next series is SD rats. Briefly: Hyperammonemia rat model (oral ammonium chloride, 30 days). It counts as in vivo. The conditions noted are these: OA (LOLA) 0.8 g/kg, TMZ 0.002 g/kg orally, or both; FIG. 8. From the text:
All five groups of rats were sacrificed after 30 days with pentobarbital anesthesia. Cardiac blood samples were collected to test blood levels of ammonia, ALT and AST. Liver biopsy specimens were collected and subject to hematoxylin-eosin (HE) staining and TUNEL staining to assess pathology.

`COc1ccc(CN2CCNCC2)c(OC)c1OC.Cl.Cl` [TMZ, 1-[2,3,4-trimethoxybenzyl]piperazine dihydrochloride]: in the series with Chang liver cells, the “reduction of ammonia in hepatocytes” value is “greater effects compared to both LOLA treatment and TMZ+LOLA co-treatment”. For the same molecule, in the series on liver failure patients [1], the “ALT decrease (k, mathematical model)” value was determined as 259.4. For the same molecule, in the series on liver failure patients [1], the “AST decrease (k, mathematical model)” value is listed as 362.53. In addition, the ALT in series [2] (Case 1, HBsAg positive person, 12 days of TMZ one tablet three times a day plus combined treatment, ALT 270 u/L at admission) came to 41 u/L; in series [2] (Case 2, serious drug-induced hepatitis, oral TMZ 20 days plus combined treatment, ALT 983 u/L at admission) it was 95 u/L; in series [2] (Case 3, acute-on-chronic liver failure, oral TMZ plus antiviral treatment, admitted Jan. 21, reexamined February 5 (12 days), ALT 1386 u/L at admission) it was 76 u/L; in series [2] (Case 4, HBsAg positive person, oral TMZ 13 days plus hepatoprotective and antiviral treatment, ALT 599 u/L before), 66 u/L. For the same molecule, the AST in series [2] (Case 1, 12 days of TMZ, AST 303 u/L at admission) is 68 u/L; in series [2] (Case 2, oral TMZ 20 days, AST 484 u/L at admission), 52 u/L; in series [2] (Case 3, reexamined February 5, AST 1368 u/L at admission), 85 u/L; in series [2] (Case 4, oral TMZ 13 days, AST 663 u/L before), 79 u/L; in series [2] (Case 5, one week of oral TMZ, AST 699 u/L at admission) it was 77 u/L. In series [2] (Case 2, oral TMZ 20 days, 401.9 umol/L at admission), the total bilirubin amounted to 130 µmol/L. Also, in series [2] (Case 5, one week of oral TMZ, 26% at admission), the “prothrombin time activity (PTA)” value stood at 48%. Further, the 30-day immortality rate entry with liver failure patients [3] (TMZ treatment group (TMZ+LOLA), TMZ 20 mg orally three times a day, 4 weeks, 44% with traditional therapeutic approach, FIG. 5) is “approximately 18%”. The 90-day immortality rate in the series on liver failure patients [3] (TMZ treatment group (TMZ+LOLA), TMZ 20 mg orally three times a day, 4 weeks, 68% with traditional therapeutic approach, FIG. 5) was 35%. In addition, the “serious adverse reaction during the clinical trial” value in the series on liver failure patients [3] (liver failure patients, TMZ 20 mg three times a day) was “no serious adverse reaction occurred”. The “FDG uptake / hepatic glucose metabolism of liver (PET-CT)” value in series [4] was “remarkably improved”. Besides, the “integrity of mitochondrial structure in hepatocytes exposed to ammonia (electron microscope)” value with SD rats is “nearly reversed the ammonia-induced mitochondria injury”.

With Diisopropylamine Dichloroacetate [DCA], in the series with liver failure patients [1], the “ALT decrease (k, mathematical model)” value came to 67.325 and the “AST decrease (k, mathematical model)” value turned out to be 142.77.
